The text below walks through data of patent US11618747B2, “LXR modulators with bicyclic core moiety” (OrsoBio, Inc., priority 2018, dated 2023).

Experiment [1] addresses T1, ligand-binding domain (LBD) of LXRα (Homo sapiens, UniProt Q13133).
T1 construct: expressed in transfected cells; host or cells: HEK293
T1 sequence (Q13133 155-447): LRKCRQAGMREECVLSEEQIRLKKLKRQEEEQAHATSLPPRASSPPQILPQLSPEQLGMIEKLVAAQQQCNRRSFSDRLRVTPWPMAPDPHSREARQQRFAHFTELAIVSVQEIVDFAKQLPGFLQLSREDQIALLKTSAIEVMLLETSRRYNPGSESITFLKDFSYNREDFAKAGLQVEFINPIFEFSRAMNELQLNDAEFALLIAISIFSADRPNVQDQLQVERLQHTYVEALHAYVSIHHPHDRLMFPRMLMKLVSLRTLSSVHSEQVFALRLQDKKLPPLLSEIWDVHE
Briefly: LXR Gal4 reporter transient transfection assay (LBD-M2H Gal4α). To be noted: HEK293 cells, LXRα LBD; read-out: LBD-M2H Gal4α (EC50 range). It counts as cell-based. The method, then: (§1) The tested compounds were usually dissolved, tested and stored as 20 mM stock solutions in DMSO. Since sulfonyl acetic acid derivatives tend to decarboxylate under these conditions, these stock solutions were prepared, tested and stored as 20 mM DMSO stock solutions containing 100 mM trifluoroacetic Acid (5 equivalents). Sulfonyl acetic acid derivatives are shelf stable as solid at rt for long time as reported by Griesbrecht et al. (Synlett 2010:374) or Faucher et al. (J. Med. Chem. 2004; 47:18).
(§2) LXR Gal4 Reporter Transient Transfection Assays
(§3) LXRα and LXRβ activity status was determined via detection of interaction with coactivator and corepressor proteins in mammalian two-hybrid experiments (M2H). For this, via transient transfection the full length (FL) proteins of LXRα (amino acids 1-447; NP005684; SEQ ID NO:1) or LXRβ-(amino acids 1-461; NP009052; SEQ ID NO:2) or the ligand-binding domains (LBD) of LXRα (amino acids 155-447 SEQ ID NO:3) or LXRβ (amino acids 156-461; SEQ ID NO:4) were expressed from pCMV-AD (Stratagene) as fusions to the transcriptional activation domain of NFkB. As cofactors, domains of either the steroid receptor coactivator 1 (SRC1; amino acids 552-887; SEQ ID NO:5) or of the corepressor NCoR (amino acids 1906-2312; NP006302; SEQ ID NO:6) were expressed as fusions to the DNA binding domain of the yeast transcription factor GAL4 (from pCMV-BD; Stratagene). Interaction was monitored via activation of a coexpressed Firefly Luciferase Reporter gene under control of a promoter containing repetitive GAL4 response elements (vector pFRLuc; Stratagene). Transfection efficiency was controlled via cotransfection of constitutively active pRL-CMV Renila reniformis luciferase reporter (Promega). HEK293 cells were grown in minimum essential medium (MEM) with 2 mM L-glutamine and Earle's balanced salt solution supplemented with 8.3% fetal bovine serum, 0.1 mM non-essential amino acids, 1 mM sodium pyruvate, at 37° C. in 5% CO2. 3.5×10^4 cells/well were plated in 96-well cell culture plates in growth medium supplemented with 8.3% fetal bovine serum for 16-20 h to ˜90% confluency. For transfection, medium was taken off and LXR and cofactor expressing plasmids as well as the reporter plasmids are added in 30 μL OPTIMEM/well including polyethylene-imine (PEI) as vehicle. Typical amounts of plasmids transfected/well: pCMV-AD-LXR (5 ng), pCMV-BD-cofactor (5 ng), pFR-Luc (100 ng), pRL-CMV (0.5 ng). Compound stocks were prepared in DMSO, prediluted in MEM to a total volume of 120 μL, and added 4 h after addition of the transfection mixture (final vehicle concentration not exceeding 0.2%). Cells were incubated for additional 16 h, lysed for 10 min in 1× Passive Lysis Buffer (Promega) and Firefly and Renilla luciferase activities were measured sequentially in the same cell extract using buffers containing D-luciferine and coelenterazine, respectively. Measurements of luminescence were done in a BMG-luminometer.

Experiment [2] deals with T2, ligand-binding domain (LBD) of LXRβ (Homo sapiens, UniProt P55055, DUP175-175).
T2 construct: LXRβ (amino acids 156-461); expressed in transfected cells; host or cells: HEK293
T2 sequence (P55055 with tags, fused parts or gaps DUP175-175 limits assumed): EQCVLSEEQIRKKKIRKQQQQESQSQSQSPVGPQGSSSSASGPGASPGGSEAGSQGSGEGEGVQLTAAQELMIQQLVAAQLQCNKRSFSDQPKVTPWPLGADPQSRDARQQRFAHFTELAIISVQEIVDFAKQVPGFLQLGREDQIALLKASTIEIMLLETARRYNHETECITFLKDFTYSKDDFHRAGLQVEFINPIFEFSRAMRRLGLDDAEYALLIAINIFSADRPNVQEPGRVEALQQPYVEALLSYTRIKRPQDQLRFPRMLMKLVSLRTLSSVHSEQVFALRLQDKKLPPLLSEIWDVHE
Briefly: LXR Gal4 reporter transient transfection assay (LBD-M2H Gal4β). The experiment is classed as cell-based. To be noted: HEK293 cells, LXRβ LBD; read-out: LBD-M2H Gal4β (EC50 range). As to the method: as §1, §2, §3

Experiment [3] has as its target T3, LXRβ ligand-binding domain (Homo sapiens, UniProt P55055, DUP175-175).
T3 construct: amino acids 156-461; NP009052; made in house; host or cells: E. coli
T3 sequence (P55055 with tags, fused parts or gaps DUP175-175 limits assumed): T2 sequence (P55055 with tags, fused parts or gaps DUP175-175 limits assumed)
Briefly: TR-FRETβ activity assay (NCoA3 coactivator peptide recruitment). It counts as biochemical. To be noted: TR-FRET, 1 μM 24(S)-25-epoxycholesterol prestimulation; read-out: FRETβ (EC50 range). In outline: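 GST-tagged human LXRβ LBD (aa 156-461, E. coli) at 76 nM with 400 nM biotinylated NCoA3 peptide in Tris/HCl pH 6.8, 240 mM KCl, BSA, 0.002% Triton-X-100, plus 1 μM 24(S)-25-epoxycholesterol as prestimulating agonist. Compounds at 50 μM down to 0.002 μM, 1 h at 4 °C. Coactivator recruitment by TR-FRET (Tb cryptate/XL665, 615/665 nm), triplicates.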
(Time-resolved FRET reads energy transfer from a long-lived donor to a nearby acceptor.)

For the compound `Cc1ccc(S(=O)(=O)n2c(-c3ccsc3)c(-c3ccsc3C#N)c3ccccc32)cc1` [1/23], the EC50 – broadly, the concentration needed to bring the measured effect to its halfway point – in experiment [1] is under 0.1 µM; in experiment [2], under 0.1 µM; in experiment [3], 0.1 to 1 µM.
For the compound `Cc1cc(C)c(S(=O)(=O)n2c(-c3cccs3)c(-c3ccsc3C#N)c3ccccc32)c(C)c1` [1/26], the results for the EC50 in experiment [1], in experiment [2] and in experiment [3] were 0.1 to 1 µM, under 0.1 µM and 1 to 10 µM, respectively.
In the case of `N#Cc1sccc1-c1c(-c2cccs2)n(S(=O)(=O)c2cccc3ccccc23)c2ccccc12` [1/27], the EC50 in experiment [1] is 0.1 to 1 µM; in experiment [2], under 0.1 µM; in experiment [3], 1 to 10 µM.
The matching figures for `Cn1cnc(S(=O)(=O)n2c(-c3cccs3)c(-c3ccsc3C#N)c3ccccc32)c1` [1/28]: 0.1 to 1 µM, under 0.1 µM and 1 to 10 µM.
On to `COc1ccc2c(c1)c(-c1ccsc1C#N)c(-c1cccs1)n2S(=O)(=O)c1ccc(Cl)cc1` [1/39], for which the EC50 in experiment [1] is 1 to 10 µM; in experiment [3] it was over 10 µM.
Regarding `COc1ccc2c(-c3ccsc3C#N)c(-c3cccs3)n(S(=O)(=O)c3ccc(Cl)cc3)c2c1` [1/40], the EC50 in experiment [1] is 0.1 to 1 µM; in experiment [2], under 0.1 µM; in experiment [3] it was 1 to 10 µM.
`N#Cc1sccc1-c1c(-c2ccccc2)n(S(=O)(=O)c2cccnc2)c2ccccc12` [1/41]: the values for the EC50 in experiment [1], in experiment [2] and in experiment [3] were 0.1 to 1 µM, under 0.1 µM and 1 to 10 µM, respectively.
The matching figures for `Cc1ncc(S(=O)(=O)n2c(-c3ccccc3)c(-c3ccsc3C#N)c3ccccc32)s1` [1/42]: under 0.1 µM, under 0.1 µM and 1 to 10 µM.
The corresponding values for `N#Cc1sccc1-c1c(-c2cccc(N3CC(C(=O)O)C3)c2)n(S(=O)(=O)c2ccccc2)c2ccc(F)cc12` [3/9] are 0.1 to 1 µM, under 0.1 µM and 1 to 10 µM.
Consider `COc1ccc(S(=O)(=O)n2c(-c3ccc(CCC(=O)O)cc3)c(-c3ccsc3C#N)c3ccccc32)cc1` [15/6], for which the EC50 lay within 0.1 to 1 µM in experiment [2] and 1 to 10 µM in experiment [3].
The corresponding values for `COc1ccc(S(=O)(=O)n2c(-c3cccs3)c(-c3ccsc3C#N)c3ccccc32)cc1` [20/14] are under 0.1 µM and 0.1 to 1 µM.
The corresponding values for `COC(=O)CCc1ccc(S(=O)(=O)n2c(-c3cccs3)c(-c3ccsc3C#N)c3ccccc32)cc1` [20/15] are 0.1 to 1 µM and 0.1 to 1 µM.
Regarding `COc1ccc(S(=O)(=O)n2c(-c3ccccc3)c(-c3c(C#N)sc4ccccc34)c3ccccc32)cc1` [20/18], the EC50 was 0.1 to 1 µM in experiment [1] and under 0.1 µM in experiment [2].
For the compound `N#Cc1sccc1-c1c(-c2cccs2)n(S(=O)(=O)c2ccc(CCC(=O)O)cc2)c2ccccc12` [23/1], the results for the EC50 in experiment [2] and in experiment [3] were under 0.1 µM and 1 to 10 µM, respectively.
`Cc1ccc(S(=O)(=O)n2c(-c3cccc(-c4cncc(C(C)(C)C(=O)O)c4)c3)c(-c3ccsc3C#N)c3ccccc32)cc1` [30/3]: the EC50 in experiment [1] and in experiment [2] was 0.1 to 1 µM throughout.
For the compound `N#Cc1sccc1-c1c(-c2cccs2)n(S(=O)(=O)c2ccc(Cl)cc2)c2ccc(O)cc12` [Example 13, 3-(1-((4-Chlorophenyl)sulfonyl)-5-hydroxy-2-(thiophen-2-yl)-1t-indol-3-yl)thiophene-2-carbonitrile], the values for the EC50 in experiment [2] and in experiment [3] were under 0.1 µM and 0.1 to 1 µM, respectively.
In the case of `N#Cc1sccc1-c1c(-c2cccs2)n(S(=O)(=O)c2ccc(Cl)cc2)c2ccc(OCC(=O)O)cc12` [Example 15, 2-((1-((4-Chlorophenyl)sulfonyl)-3-(2-cyanothiophen-3-yl)-2-(thiophen-2-yl)-1H-indol-5-yl)oxy)acetic Acid], the EC50 in experiment [2] and in experiment [3] was over 10 µM in each case.
`N#Cc1sccc1-c1c(-c2cccs2)n(S(=O)(=O)c2ccc(Cl)cc2)c2cc(CCC(=O)O)c(O)cc12` [Example 17, 3-(1-((4-Chlorophenyl)sulfonyl)-3-(2-cyanothiophen-3-yl)-5-hydroxy-2-(thiophen-2-yl)-1H-indol-6-yl)propanoic Acid]: the EC50 is 1 to 10 µM in experiment [2] and over 10 µM in experiment [3].
The matching figures for `O=S(=O)(c1ccc(Cl)cc1)n1c(-c2cccs2)c(-c2ccsc2Cl)c2ccccc21` [Example 20, 1-((4-Chlorophenyl)sulfonyl)-3-(2-chlorothiophen-3-yl)-2-(thiophen-2-yl)-1H-indole]: under 0.1 µM and 0.1 to 1 µM.
The matching figures for `O=C(O)c1sccc1-c1c(-c2cccs2)n(S(=O)(=O)c2ccc(Cl)cc2)c2ccccc12` [Example 21, 3-(1-((4-Chlorophenyl)sulfonyl)-2-(thiophen-2-yl)-1H-indol-3-yl)thiophene-2-carboxylic Acid]: 1 to 10 µM and over 10 µM.
On to `N#Cc1sccc1-c1c(-c2cccs2)n(S(=O)(=O)c2ccc(Cl)cc2)c2ccc(C(=O)O)cc12` [Example 23, 1-((4-Chlorophenyl)sulfonyl)-3-(2-cyanothiophen-3-yl)-2-(thiophen-2-yl)-1H-indole-5-carboxylic Acid], for which the EC50 is 0.1 to 1 µM in experiment [2] and over 10 µM in experiment [3].
As for `N#Cc1sccc1-c1c(-c2cncs2)n(S(=O)(=O)c2ccc(Cl)cc2)c2ccccc12` [Example 25], the EC50 in experiment [2] is under 0.1 µM; in experiment [3], 1 to 10 µM.
The corresponding values for `N#Cc1sccc1-c1c(-c2ccccc2)n(S(=O)(=O)c2ccc(OCC(=O)O)cc2)c2ccccc12` [Example 27, 2-(4-((3-(2-Cyanothiophen-3-yl)-2-phenyl-1-H-indol-1-yl)sulfonyl)phenoxy)acetic Acid] are 0.1 to 1 µM and 1 to 10 µM.
The matching figures for `COc1ccc(S(=O)(=O)n2c(-c3ccc(CCC(N)=O)cc3)c(-c3ccsc3C#N)c3ccccc32)cc1` [Example 28, 3-(4-(3-(2-Cyanothiophen-3-yl)-1-((4-methoxyphenyl)sulfonyl)-1H-indol-2-yl)phenyl)propan-amide]: 0.1 to 1 µM and 1 to 10 µM.
The corresponding values for `Cc1ccc(S(=O)(=O)n2c(-c3cccc(-c4cccc(C(=O)NS(C)(=O)=O)c4)c3)c(-c3ccsc3C#N)c3ccccc32)cc1` [Example 32, 3′-(3-(2-Cyanothiophen-3-yl)-1-tosyl-1H-indol-2-yl)-N-(methylsulfonyl)-[1,1′-biphenyl]-3-carboxamide] are 0.1 to 1 µM and 0.1 to 1 µM.
